This assay deals with benzodiazepine receptors. The assay is described as follows: In vivo displacement of 3H-flunitrazepam from brain benzodiazepine receptors. To be noted: mice (female, NMR), test substance i.p. 15 min before 3H-FNM i.v.; dose inhibiting 50% of specific 3H-FNM binding in forebrain. The text has this: The pharmaceutical properties of the compounds of the invention can be illustrated by determining their capability for displacing radioactivity labelled flunitrazepam from benzodiazepine receptors.
The displacement activity of the compounds of the invention may be found by determining the ED50 value. The ED50 value represents the dose (mg/kg) of a test substance which causes the specific binding of flunitrazepam to benzodiazepine receptors in a living brain to be reduced to 50% of the control value.
Such an in vivo test is carried out as follow:
Principle. Twenty minutes after a dose of ^3 H-flunitrazepam (^3 H-FNM) (200 μCi/kg, i.v.) the amount of specific ^3 H-FNM binding to brain benzodiazepine receptors has reached its maximal value.
Test procedure. Suspensions of test substances (2 mg/ml) are prepared in 5% Duphasol-X (TM Duphar, caster oil-ethylene oxide derivative for emulsifying and solubilizing oil and other water-insoluble substances) by sonification for 10 min using a Branson B15 microtip ultrasonifier (setting 7). Groups of three mice (female, NMR, 18-22 grams) are injected with the test substance at 100 mg/kg intraperitoneally. Fifteen minutes after test substance administration the mice are challenged with 4 μCi intravenously of ^3 H-FNM (70-90 Ci/mole) in 200 μl physiological saline. Twenty minutes after ^3 H-FNM administration mice are sacrificed by decapitation, the forebrains rapidly excised (within 30 sec) and homogenized in 12 ml of icecold 25 mM KH2 PO4, pH 7.1, using an Ultra-Turrax™ homogenizer fitted with an N 10 shaft. Two aliquots of 1 ml are immediately filtered through Whatman GF/C glassfibre filters and washed with 2×5 ml of the above mentioned buffer. The amounts of radioactivity on the filters are determined by conventional scintillation counting. One group of untreated mice serves as control. One to three mice are injected with 25 μg/kg clonazepam i.p. 30 minutes before ^3 H-FNM to determine the amount of non-specific ^3 H-FNM binding, which should be between 8-15% of total binding. When doses of 100 mg/kg inhibit more than 50% of specific ^3 H-flunitrazepam binding, test substances are administered in doses, which are factors of 3.16 times lower than 100 mg/kg. The ED50 for a test substance is defined as that dose which inhibits 50% of specific ^3 H-FNM binding. Specific binding is the amount of binding in controls minus the amount of binding in clonazepam-treated mice.
Results. The ED50 value is determined from dose response curves. If only one dose of test substance is administered the ED50 value is calculated as follows, provided that the inhibition of specific binding is within the range of 25-75%: [formula] where Co is specific binding in controls of Cx is specific binding in mice treated with test substance.
As for `CCc1noc(-c2cccc3c2C(=O)N(C)Cc2c(-c4nc(CC)no4)ncn2-3)n1`, the “In vivo displacement activity: ED50” value is 1.3 mg/kg.
With `CCOC(=O)c1cccc2c1C(=O)N(C)Cc1c(-c3nc(C4CC4)no3)ncn1-2`, the “In vivo displacement activity: ED50” value is on record as 1.4 mg/kg.
In the case of `CCOC(=O)c1cccc2c1C(=O)N(C)Cc1c(-c3noc(C)n3)ncn1-2` it was 1.5 mg/kg.
The result for `COC(=O)c1cccc2c1C(=O)N(C)Cc1c(-c3nc(C4CC4)no3)ncn1-2` reads 0.4 mg/kg; that for `Cc1nc(-c2ncn3c2CN(C)C(=O)c2c(-c4nc(-c5ccccc5)no4)cccc2-3)no1`, 1.7 mg/kg.

(Values after patent publication US4772599A, “Benzodiazepine derivatives and their preparation and use” (A/S Ferrosan, priority 1986, dated 1988).)
